Experimental data reported in the supplement of paper PMC11061612.

How the values were obtained:
U-698-M [1] = assay: Bliss excess, mean over the matrix (fraction); higher = more synergy; conditions: U-[…], B-Cell Non-Hodgkin's Lymphoma
Outline: (§1)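 Bliss excess equals the observed combination effect minus the expected value EA + EB − EA·EB, where EA and EB are the effects of each agent alone. Combination Emax is the second-highest inhibition within the matrix. Inhibition was scaled from CellTiter-Glo 2.0 luminescence, with 0 set by vehicle wells and 1 by blank wells, after 72 hours of two-drug dosing of cells plated in 1536-well plates.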

U-698-M [2] = assay: combination Emax (second highest fraction inhibited in the dose matrix, 72 h); higher = more inhibition; conditions: B-Cell Non-Hodgkin's Lymphoma
Outline: as §1

[3] = first compound max 1 µM, partner max 1 µM
[4] = first compound max 1 µM, partner max 1 µM, 7x7
[5] = first compound max 1 µM, partner max 10 µM, 7x7
[6] = first compound max 3 µM, partner max 3 µM
[7] = first compound max 1 µM, partner max 0.3 µM
[8] = first compound max 1 µM, partner max 10 µM
[9] = first compound max 1 µM, partner max 3 µM, 7x7
[10] = first compound max 1 µM, partner max 0.3 µM, 7x7

## CN(C)CCCOc1ccc(-c2ccc3ncc4c(c3c2)n(C2CCOCC2)c(=O)n4C)cn1 [AZD0156] + C=CCn1c(=O)c2cnc(Nc3ccc(N4CCN(C)CC4)cc3)nc2n1-c1cccc(C(C)(C)O)n1 [AZD1775]
U-698-M [1]; [3]
  Bliss excess: -0.0399
U-698-M [2]; [3]
  combination Emax: 0.984

## CN(C)CCCOc1ccc(-c2ccc3ncc4c(c3c2)n(C2CCOCC2)c(=O)n4C)cn1 [AZD0156] + CCN(CCO)CCCOc1ccc2c(Nc3cc(CC(=O)Nc4cccc(F)c4)[nH]n3)ncnc2c1 [AZD2811]
U-698-M [1]; [4]
  Bliss excess: -0.014
U-698-M [2]; [4]
  combination Emax: 0.168

## CN(C)CCCOc1ccc(-c2ccc3ncc4c(c3c2)n(C2CCOCC2)c(=O)n4C)cn1 [AZD0156] + C[C@@H]1COCCN1C2=NC(=NC(=C2)C3(CC3)[S@](=N)(=O)C)C4=C5C=CNC5=NC=C4 [AZD6738]
U-698-M [1]; [5]
  Bliss excess: 0.0473
U-698-M [2]; [5]
  combination Emax: 0.978

## CN(C)CCCOc1ccc(-c2ccc3ncc4c(c3c2)n(C2CCOCC2)c(=O)n4C)cn1 [AZD0156] + O=C(c1cc(Cc2n[nH]c(=O)c3ccccc23)ccc1F)N1CCN(C(=O)C2CC2)CC1 [Olaparib]
U-698-M [1]; [6]
  Bliss excess: 0.0153
U-698-M [2]; [6]
  combination Emax: 0.378

## C=CCn1c(=O)c2cnc(Nc3ccc(N4CCN(C)CC4)cc3)nc2n1-c1cccc(C(C)(C)O)n1 [AZD1775] + C1CN(CCC1(C(=O)N[C@@H](CCO)C2=CC=C(C=C2)Cl)N)C3=NC=NC4=C3C=CN4 [Capivasertib]
U-698-M [1]; [6]
  Bliss excess: -0.0654
U-698-M [2]; [6]
  combination Emax: 0.959

## C=CCn1c(=O)c2cnc(Nc3ccc(N4CCN(C)CC4)cc3)nc2n1-c1cccc(C(C)(C)O)n1 [AZD1775] + CCc1c2c(nc3ccc(O)cc13)-c1cc3c(c(=O)n1C2)COC(=O)[C@]3(O)CC [SN-38]
U-698-M [1]; [7]
  Bliss excess: 0.0364
U-698-M [2]; first compound max 1 µM, partner max 0.3 µM, may be a limit of the assay
  combination Emax: 1

## C=CCn1c(=O)c2cnc(Nc3ccc(N4CCN(C)CC4)cc3)nc2n1-c1cccc(C(C)(C)O)n1 [AZD1775] + C[C@@H]1COCCN1C2=NC(=NC(=C2)C3(CC3)[S@](=N)(=O)C)C4=C5C=CNC5=NC=C4 [AZD6738]
U-698-M [1]; [8]
  Bliss excess: 0.0479
U-698-M [2]; first compound max 1 µM, partner max 10 µM, may be a limit of the assay
  combination Emax: 1

## C=CCn1c(=O)c2cnc(Nc3ccc(N4CCN(C)CC4)cc3)nc2n1-c1cccc(C(C)(C)O)n1 [AZD1775] + Nc1ccn([C@@H]2O[C@H](CO)[C@@H](O)C2(F)F)c(=O)n1 [Gemcitabine]
U-698-M [1]; [7]
  Bliss excess: 0.116
U-698-M [2]; [7]
  combination Emax: 0.956

## C=CCn1c(=O)c2cnc(Nc3ccc(N4CCN(C)CC4)cc3)nc2n1-c1cccc(C(C)(C)O)n1 [AZD1775] + O=C(c1cc(Cc2n[nH]c(=O)c3ccccc23)ccc1F)N1CCN(C(=O)C2CC2)CC1 [Olaparib]
U-698-M [1]; [8]
  Bliss excess: -0.0077
U-698-M [2]; [8]
  combination Emax: 0.967

## CCN(CCO)CCCOc1ccc2c(Nc3cc(CC(=O)Nc4cccc(F)c4)[nH]n3)ncnc2c1 [AZD2811] + C=CCn1c(=O)c2cnc(Nc3ccc(N4CCN(C)CC4)cc3)nc2n1-c1cccc(C(C)(C)O)n1 [AZD1775]
U-698-M [1]; [3]
  Bliss excess: -0.0493
U-698-M [2]; [3]
  combination Emax: 0.956

## CCN(CCO)CCCOc1ccc2c(Nc3cc(CC(=O)Nc4cccc(F)c4)[nH]n3)ncnc2c1 [AZD2811] + C[C@@H]1COCCN1C2=NC(=NC(=C2)C3(CC3)[S@](=N)(=O)C)C4=C5C=CNC5=NC=C4 [AZD6738]
U-698-M [1]; [5]
  Bliss excess: 0.0016
U-698-M [2]; [5]
  combination Emax: 0.956

## CCN(CCO)CCCOc1ccc2c(Nc3cc(CC(=O)Nc4cccc(F)c4)[nH]n3)ncnc2c1 [AZD2811] + O=C(c1cc(Cc2n[nH]c(=O)c3ccccc23)ccc1F)N1CCN(C(=O)C2CC2)CC1 [Olaparib]
U-698-M [1]; [5]
  Bliss excess: 0.0384
U-698-M [2]; [5]
  combination Emax: 0.479

## CN(CCO)CC[C@H](CSc1ccccc1)Nc1ccc(S(=O)(=O)NC(=O)c2ccc(N3CCC([C@@H](O)c4ccccc4-c4ccc(Cl)cc4)CC3)cc2)cc1S(=O)(=O)C(F)(F)F [AZD4320] + C1CN(CCC1(C(=O)N[C@@H](CCO)C2=CC=C(C=C2)Cl)N)C3=NC=NC4=C3C=CN4 [Capivasertib]
U-698-M [1]; [9]
  Bliss excess: 0.0056
U-698-M [2]; [9]
  combination Emax: 0.272

## CN(CCO)CC[C@H](CSc1ccccc1)Nc1ccc(S(=O)(=O)NC(=O)c2ccc(N3CCC([C@@H](O)c4ccccc4-c4ccc(Cl)cc4)CC3)cc2)cc1S(=O)(=O)C(F)(F)F [AZD4320] + C=CCn1c(=O)c2cnc(Nc3ccc(N4CCN(C)CC4)cc3)nc2n1-c1cccc(C(C)(C)O)n1 [AZD1775]
U-698-M [1]; [3]
  Bliss excess: -0.0221
U-698-M [2]; [3]
  combination Emax: 0.931

## CN(CCO)CC[C@H](CSc1ccccc1)Nc1ccc(S(=O)(=O)NC(=O)c2ccc(N3CCC([C@@H](O)c4ccccc4-c4ccc(Cl)cc4)CC3)cc2)cc1S(=O)(=O)C(F)(F)F [AZD4320] + CC(=O)O[C@H]1C(=O)[C@@]2(C)[C@H]([C@H](OC(=O)c3ccccc3)[C@]3(O)C[C@H](OC(=O)[C@H](O)[C@@H](NC(=O)c4ccccc4)c4ccccc4)C(C)=C1C3(C)C)[C@]1(OC(C)=O)CO[C@@H]1C[C@@H]2O [Paclitaxel]
U-698-M [1]; [9]
  Bliss excess: -0.0109
U-698-M [2]; first compound max 1 µM, partner max 3 µM, 7x7, may be a limit of the assay
  combination Emax: 1

## CN(CCO)CC[C@H](CSc1ccccc1)Nc1ccc(S(=O)(=O)NC(=O)c2ccc(N3CCC([C@@H](O)c4ccccc4-c4ccc(Cl)cc4)CC3)cc2)cc1S(=O)(=O)C(F)(F)F [AZD4320] + CCN(CCO)CCCOc1ccc2c(Nc3cc(CC(=O)Nc4cccc(F)c4)[nH]n3)ncnc2c1 [AZD2811]
U-698-M [1]; [4]
  Bliss excess: -0.0275
U-698-M [2]; [4]
  combination Emax: 0.138

## CN(CCO)CC[C@H](CSc1ccccc1)Nc1ccc(S(=O)(=O)NC(=O)c2ccc(N3CCC([C@@H](O)c4ccccc4-c4ccc(Cl)cc4)CC3)cc2)cc1S(=O)(=O)C(F)(F)F [AZD4320] + CN(C)CCCOc1ccc(-c2ccc3ncc4c(c3c2)n(C2CCOCC2)c(=O)n4C)cn1 [AZD0156]
U-698-M [1]; [4]
  Bliss excess: -0.0291
U-698-M [2]; [4]
  combination Emax: 0.183

## CN(CCO)CC[C@H](CSc1ccccc1)Nc1ccc(S(=O)(=O)NC(=O)c2ccc(N3CCC([C@@H](O)c4ccccc4-c4ccc(Cl)cc4)CC3)cc2)cc1S(=O)(=O)C(F)(F)F [AZD4320] + CS(=O)(=O)CCNCc1ccc(-c2ccc3ncnc(Nc4ccc(OCc5cccc(F)c5)c(Cl)c4)c3c2)o1 [Lapatinib]
U-698-M [1]; [5]
  Bliss excess: -0.0415
U-698-M [2]; [5]
  combination Emax: 0.551

## CN(CCO)CC[C@H](CSc1ccccc1)Nc1ccc(S(=O)(=O)NC(=O)c2ccc(N3CCC([C@@H](O)c4ccccc4-c4ccc(Cl)cc4)CC3)cc2)cc1S(=O)(=O)C(F)(F)F [AZD4320] + C[C@@H]1COCCN1C2=NC(=NC(=C2)C3(CC3)[S@](=N)(=O)C)C4=C5C=CNC5=NC=C4 [AZD6738]
U-698-M [1]; [5]
  Bliss excess: -0.0427
U-698-M [2]; [5]
  combination Emax: 0.773

## CN(CCO)CC[C@H](CSc1ccccc1)Nc1ccc(S(=O)(=O)NC(=O)c2ccc(N3CCC([C@@H](O)c4ccccc4-c4ccc(Cl)cc4)CC3)cc2)cc1S(=O)(=O)C(F)(F)F [AZD4320] + C[C@@H](Nc1cc(F)cc(F)c1)c1cc(C(=O)N(C)C)cc2c(=O)cc(N3CCOCC3)oc12 [AZD8186]
U-698-M [1]; [9]
  Bliss excess: 0.0074
U-698-M [2]; [9]
  combination Emax: 0.348

## CN(CCO)CC[C@H](CSc1ccccc1)Nc1ccc(S(=O)(=O)NC(=O)c2ccc(N3CCC([C@@H](O)c4ccccc4-c4ccc(Cl)cc4)CC3)cc2)cc1S(=O)(=O)C(F)(F)F [AZD4320] + Cc1cc2ncnn2cc1Nc1ncc2c(n1)n(C1CCOCC1)c(=O)n2C [AZD7648]
U-698-M [1]; [5]
  Bliss excess: -0.016
U-698-M [2]; [5]
  combination Emax: 0.415

## CN(CCO)CC[C@H](CSc1ccccc1)Nc1ccc(S(=O)(=O)NC(=O)c2ccc(N3CCC([C@@H](O)c4ccccc4-c4ccc(Cl)cc4)CC3)cc2)cc1S(=O)(=O)C(F)(F)F [AZD4320] + Cn1cnc2c(F)c(Nc3ccc(Br)cc3Cl)c(C(=O)NOCCO)cc21 [Selumetinib]
U-698-M [1]; [9]
  Bliss excess: 0.058
U-698-M [2]; [9]
  combination Emax: 0.42

## CN(CCO)CC[C@H](CSc1ccccc1)Nc1ccc(S(=O)(=O)NC(=O)c2ccc(N3CCC([C@@H](O)c4ccccc4-c4ccc(Cl)cc4)CC3)cc2)cc1S(=O)(=O)C(F)(F)F [AZD4320] + Nc1ccn([C@@H]2O[C@H](CO)[C@@H](O)C2(F)F)c(=O)n1 [Gemcitabine]
U-698-M [1]; [10]
  Bliss excess: -0.0159
U-698-M [2]; [10]
  combination Emax: 0.595

## COc1nnc2ccc(N3CCC(c4ccc(OCCN5CCN(C)C(=O)[C@H]5C)cc4)CC3)nn12 [AZD5153] + C=CCn1c(=O)c2cnc(Nc3ccc(N4CCN(C)CC4)cc3)nc2n1-c1cccc(C(C)(C)O)n1 [AZD1775]
U-698-M [1]; [3]
  Bliss excess: -0.0574
U-698-M [2]; [3]
  combination Emax: 0.961

## Cc1c2c(nn1C)CSCc1cc(n(C)n1)CSc1cc(c3ccccc3c1)OCCCc1c(C(=O)O)n(C)c3c-2c(Cl)ccc13 [AZD5991] + C=CCn1c(=O)c2cnc(Nc3ccc(N4CCN(C)CC4)cc3)nc2n1-c1cccc(C(C)(C)O)n1 [AZD1775]
U-698-M [2]; first compound max 1 µM, partner max 1 µM, may be a limit of the assay
  combination Emax: 1
